Assay results as given in patent US20130158014A1, “METHOD FOR TREATING DISEASES ASSOCIATED WITH ALTERATIONS IN CELLULAR INTEGRITY USING RHO KINASE INHIBITOR COMPOUNDS” (priority 2008, published 2013).
Read-outs that look alike come from different tables or passages of the source. Blank lines part the entries; values can stand above or below the compound they belong to.

What was measured:
[1] = tested on: ova-sensitized, ova-challenged mice; test: Mouse ovalbumin sensitization model: eosinophils in BALF; type: in vivo; settings: dosed orally once a day, day 27 to day 31; FIG. 4
Method: Male BALB/c mice were ordered from Charles River Laboratories (Raleigh, N.C.). The animals were approximately 19 to 21 grams at time of receipt. Upon arrival, the animals were randomized into groups of five males per cage and assigned to a dosing group. Animals were quarantined for 7 days under test conditions. They were observed daily for general health status and ability to adapt to the water bottles. Animals were sensitized on day 0 and 14 of study by an intraperitoneal injection with 20 μg of ovalbumin (ova) and 2.0 mg aluminum hydroxide (alum) which initiates the development of a specific T-helper (Th) cells type 2 resulting in asthmatic animals (denoted as Ova in the figures). One group of animals received an injection of saline to use as control animals (denoted as normal in the figures). All animals were challenged with aerosolized 1% ova once daily for 25 minutes on days 28, 29, and 30 (Zosky, et al. Respiratory Research. 2004; 5:15). Aerosol challenge consists of using an Aerogen Aeroneb nebulizer and controller with a particle size of 4-6 μm mass median aerodynamic diameter (MMAD) with a distribution of 400 μl per minute. This aerosol challenge is necessary to target the Th2-driven allergic inflammation in the lower airways. […]
Bronchoalveolar lavage fluid (BALF) was collected by infusing 3.0 ml of saline with 10% fetal calf serum into the lungs via the trachea and then withdrawing the fluid. The total amount of cells/ml of BALF fluid was determined via manual cell count on hemocytometer. The BALF was centrifuged, supernatant removed and analyzed for cytokine concentrations as described below, and cell pellet reconstituted in 500 μL of fluid. […] Following Hema3 stain, relative percentages of individual leukocytes were determined on a 200 cell count for each sample. The final concentration of individual leukocyte cell types per ml of BALF was determined by multiplication of the relative percentage of individual leukocytes with the total amount of cells/ml of BALF fluid.

[2] = tested on: ova-sensitized, ova-challenged mice; test: Prevention of airway hyperreactivity (Penh, methacholine) in mouse ovalbumin model; type: in vivo; settings: days 27 to 31; for airway hyperreactivity: intratracheal once a day
Method: The anti-inflammatory dosing paradigm consists of dosing the animals once a day starting on day 27 and finishing on either day 30 or 31 (1 hr prior to the aerosolized ovalbumin challenges on days 28 to 30) but not on day 32 when hyperreactivity evaluation occurs. […] Exposure to the methacholine doses consisted of a 3 minute period during which a nebulizer was aerosolizing the methacholine and an additional 3 minute period following the cessation of nebulization. […] Enhanced pause (Penh), a unitless index of airway hyperreactivity, is derived from the expiratory side of the respiratory waveform measured via the plethysmograph and is used as an indirect measure of airway resistance and hyperreactivity. […] Following the methacholine dose response, BALF was collected and all animals were anesthetized, bled and euthanized. […] The Penh value at each of the dose levels of methacholine represents the 6-minute average response. Change from baseline (CFB) in Penh was calculated at each methacholine dose and the area under the curve (AUC) for these CFB values was calculated using the trapezoidal rule. This same approach was applied for each mouse across multiple experiments. […] Data from equal experimental conditions across experiments performed on different days were pooled for statistical analysis and data reporting. […] A random intercept for each experiment was assumed to account for possible similarities of the results obtained from a given experiment (i.e., as a “blocking effect”). […] For FIG. 9, linear AUC values from compound treated mice were reported as a percent of linear AUC values from vehicle-treated ovalbumin-sensitized/ovalbumin-challenged (asthmatic) mice.

[3] = Rat oral pharmacokinetics (plasma); type: in vivo; settings: rat oral PK, mean n = 3 rats, 20-30 μmmol/kg
Method: Plasma (EDTA K2 anticoagulant) was collected from male, cannulated, CD Sprague Dawley rats to determine the pharmacokinetics of formulations containing compound inhibitors of Rho kinase. Each animal was dosed orally with a 4 ml/kg solution or suspension of each test compound in 10 mM acetate buffered saline, pH 4.5 at a final concentration range of 20-30 μmmol/kg. Blood was collected at 0.25, 0.5, 1, 2, 4, 6, 8, and 24 hours. Plasma samples were assayed for the concentration of the test compound using an on-line, solid phase extraction LC/MS/MS analysis system.
Samples were analyzed on a QSTAR Elite, hybrid quadrupole time-of-flight mass spectrometer (Applied Biosystems, Framingham, Mass.) coupled with a Symbiosis Pharma integrated, on-line SPE-HPLC system (Spark Holland Inc., Plainsboro, N.J.). Analyst QS 2.0 software was used for instrument control, data acquisition and processing. […] Mobile Phase A consisted of 0.1% ammonium hydroxide in water and Mobile Phase B consisted of 0.1% formic acid in acetonitrile. Pharmacokinetic analyses were performed using WinNonlin software version 5.2 (Pharsight Corporation, Mountain View, Calif.).
As determined from the plasma concentration versus time curves, the time to peak and peak exposure are represented by the values Tmax and Cmax, respectively. The AUC values (nM*hr) shown were calculated as the areas under the plasma concentration versus time curves from time zero through the time of the last observable value and represent the total exposure of the compound over the course of the study. Half-life values or the amount of time required for the plasma levels of the compound to decline to half the initial value are represented as t1/2.

p70S6K = biological target: T1, p70S6K (Homo sapiens, UniProt P23443, T412E); test: p70S6K inhibition assay (IMAP); type: biochemical; settings: average
T1 construct: purchased Upstate Chemicon 14-486
T1 sequence (P23443 1-421 T412E limits assumed): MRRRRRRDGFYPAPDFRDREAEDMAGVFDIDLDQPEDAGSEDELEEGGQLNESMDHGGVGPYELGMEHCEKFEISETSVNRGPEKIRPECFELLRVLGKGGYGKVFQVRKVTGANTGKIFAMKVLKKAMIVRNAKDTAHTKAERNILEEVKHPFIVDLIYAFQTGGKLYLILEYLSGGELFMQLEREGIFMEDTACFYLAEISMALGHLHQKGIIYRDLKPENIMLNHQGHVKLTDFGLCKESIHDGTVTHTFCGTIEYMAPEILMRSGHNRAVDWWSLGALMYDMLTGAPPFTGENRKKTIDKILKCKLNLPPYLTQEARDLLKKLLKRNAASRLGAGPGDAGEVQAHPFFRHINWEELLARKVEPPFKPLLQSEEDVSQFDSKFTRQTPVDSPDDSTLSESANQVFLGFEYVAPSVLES
Method: (§1) Inhibition of Akt3 and p70S6K activity was determined using the IMAP™ FP Progressive Binding Kit (Molecular Devices product number R8127). […] Following the pre-incubation, 30 μM ATP was added to initiate the reaction. After 60 minutes at RT, Molecular Devices IMAP™ binding solution was added to bind phosphorylated substrate. After 30 minutes of incubation in the presence of the IMAP™ beads the fluorescence polarization was read and the ratio was reported as mP. IC50 results were calculated using the Prism software from Graphpad. The Ki values were determined according to the following formula: Ki=IC50/(1+([ATP Challenge]/EC50 ATP)).

[4] = Compound plasma concentrations in unsensitized mice at 15 min post administration; type: in vivo, mouse; settings: for Mouse Oral PK: mean plasma concentration in mice, 15 minutes post oral administration; for Plasma Mean Concentration: mice, 15 min post administration, mean n = 3 mice
Method: Test compounds were formulated in water or 1% polysorbate 80 and dosed at 15 μmmol/kg for intraperitoneal (IP) or oral (PO) administration or formulated for intratracheal (IT) administration and dosed at 5 μmmol/kg, which directly targets the lungs. Following completion of the in vivo study, mice were euthanized and blood and plasma collected approximately 2.5-3 hours post administration of test compound for bronchodialator (BD) studies and 24 hours post administration for anti-inflamatory (AI) studies. […] Both plasma samples and lung extracts were assayed for compound concentrations using an on-line, solid phase extraction LC/MS/MS system.

ROCK2 = biological target: T2, ROCK2 (Homo sapiens, UniProt O75116); test: Rho kinase inhibition assay (IMAP), ROCK2; type: biochemical; settings: average
T2 construct: purchased Upstate/Chemicon 14-451
T2 sequence (O75116 11-552 limits assumed): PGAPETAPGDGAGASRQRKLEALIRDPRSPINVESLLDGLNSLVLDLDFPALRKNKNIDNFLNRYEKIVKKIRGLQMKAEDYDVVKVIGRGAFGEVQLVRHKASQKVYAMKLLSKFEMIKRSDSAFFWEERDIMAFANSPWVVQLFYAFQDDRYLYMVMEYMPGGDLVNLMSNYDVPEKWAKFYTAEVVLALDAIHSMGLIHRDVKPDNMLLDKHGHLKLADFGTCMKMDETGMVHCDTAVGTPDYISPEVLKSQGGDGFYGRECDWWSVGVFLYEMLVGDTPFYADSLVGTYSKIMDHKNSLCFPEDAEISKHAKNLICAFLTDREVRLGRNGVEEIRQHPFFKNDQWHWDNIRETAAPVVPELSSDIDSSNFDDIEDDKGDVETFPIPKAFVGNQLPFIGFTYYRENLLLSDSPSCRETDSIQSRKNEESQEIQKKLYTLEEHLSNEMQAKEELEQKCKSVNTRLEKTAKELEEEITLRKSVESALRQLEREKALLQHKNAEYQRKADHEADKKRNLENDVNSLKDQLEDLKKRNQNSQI
Method: Following the pre-incubation, 10 μM ATP was added to initiate the reaction. After 60 minutes at room temperature, Molecular Devices IMAP™ binding solution was added to bind phosphorylated substrate. After 30 minutes of incubation in the presence of the IMAP™ beads, the fluorescence polarization was read and the ratio was reported as mP. IC50 values for compounds and EC50 values for ATP were calculated using the Prism software from Graphpad.

[5] = tested on: IL-1β secretion from LPS-stimulated human monocytes; test: Human monocyte cytokine secretion assay (LPS): IL-1β; type: cell-based; settings: average percent of stimulated secretion from human monocytes, 10 μM test compound
Method: (§2) Peripheral blood from healthy human volunteers was collected and the monocytes isolated via Ficoll-paque density centrifugation. […] The cells were allowed to pre-incubate with test compound at the indicated concentration for 30 minutes (37° C., 5% CO2, humidified air); after which the supernatant was removed and media containing compound and 1 ng/mL LPS was added. Cells were allowed to incubate with compounds and LPS for 4 hours at 37° C. after which the supernatant was removed and stored at −80° C. Cytokine concentrations in the supernatant were determined using commercially available Bio-Rad Bio-plex™ kits according the manufacturer's instructions.

[6] = tested on: IL-6 secretion from LPS-stimulated human monocytes; test: Human monocyte cytokine secretion assay (LPS): IL-6; type: cell-based; settings: average percent of stimulated secretion from human monocytes, 10 μM test compound
Method: as §2

[7] = tested on: TNF-α secretion from LPS-stimulated human monocytes; test: Human monocyte cytokine secretion assay (LPS): TNF-α; type: cell-based; settings: average percent of stimulated secretion from human monocytes, 10 μM test compound
Method: as §2

Akt3 = biological target: T3, Akt3 (Homo sapiens, UniProt Q9Y243); test: Akt3 inhibition assay (IMAP); type: biochemical; settings: IMAP FP assay, 30 μM ATP; average
T3 construct: purchased Upstate Chemicon 14-502
T3 sequence (Q9Y243 whole entry): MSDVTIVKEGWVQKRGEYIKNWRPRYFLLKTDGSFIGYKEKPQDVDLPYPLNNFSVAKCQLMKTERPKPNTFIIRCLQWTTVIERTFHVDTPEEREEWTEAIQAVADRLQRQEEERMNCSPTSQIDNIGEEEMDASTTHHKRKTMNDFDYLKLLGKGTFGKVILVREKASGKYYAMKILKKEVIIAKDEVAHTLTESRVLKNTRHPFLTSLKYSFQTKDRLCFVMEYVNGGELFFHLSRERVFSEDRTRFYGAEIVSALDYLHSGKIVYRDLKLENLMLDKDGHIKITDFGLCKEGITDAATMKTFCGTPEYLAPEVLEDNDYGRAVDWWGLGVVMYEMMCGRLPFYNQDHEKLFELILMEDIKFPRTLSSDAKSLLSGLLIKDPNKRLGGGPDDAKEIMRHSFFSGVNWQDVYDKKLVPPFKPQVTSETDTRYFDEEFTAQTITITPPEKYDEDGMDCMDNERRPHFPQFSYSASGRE
Method: as §1

ERK2 = biological target: T4, ERK2 (Homo sapiens, UniProt P28482); test: Kinase panel screen (KinaseProfiler): ERK2; type: biochemical; settings: 10 μM ATP, read-out: Percent inhibition ERK2; for activity at 10 µM: 10 μM test compound; for activity at 1 µM: 1 μM test compound
T4 construct: purchased Upstate, Millipore Bioscience Division (KinaseProfiler service)
T4 sequence (P28482 whole entry): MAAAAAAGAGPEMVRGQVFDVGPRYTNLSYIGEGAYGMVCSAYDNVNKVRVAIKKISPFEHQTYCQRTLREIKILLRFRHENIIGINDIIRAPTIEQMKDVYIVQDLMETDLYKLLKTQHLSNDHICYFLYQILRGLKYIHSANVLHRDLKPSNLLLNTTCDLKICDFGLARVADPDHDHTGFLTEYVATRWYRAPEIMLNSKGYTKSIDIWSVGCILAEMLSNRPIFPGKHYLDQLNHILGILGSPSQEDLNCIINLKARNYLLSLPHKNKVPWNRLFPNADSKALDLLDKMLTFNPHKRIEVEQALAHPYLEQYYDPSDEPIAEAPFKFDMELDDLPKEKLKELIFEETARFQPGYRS
Method: Compounds of Formulae I and II were examined for activity against a selected panel of kinases using the KinaseProfiler™ enzyme profiling services (Upstate, Millipore Bioscience Division). Percent kinase activity at 10 μM and 1 μM test compound and 10 μM ATP was determined against 40 wild-type recombinant human kinases according to Upstate's standard protocol: ASK1, BTK, CSK, c-RAF, GCK, GSK3β, IKKα, IKKβ, IRAK1, IRAK4, JNK1α1, JNK2α2, JNK3, ERK1, ERK2, MAPKAP-K2, MAPKAP-K3, MEK1, MKK4, MKK6, MKK7β, Mnk2, MSK1, PAK3, PDK1, PRAK, ROCK1, Rsk2, SAPK2a, SAPK2b, SAPK3, SAPK4, SRPK1, SRPK2, Syk, TAK1, TBK1, PI3-Kβ, PI3-Kγ, PI3-Kδ.

[8] = tested on: A-10 rat thoracic aorta cells; test: PDGF-stimulated smooth muscle cell proliferation assay (BrdU); type: cell-based; settings: for Proliferation at 10 μM: 10 μM test compound
Method: Effects on cell proliferation were measured using a bromodeoxyuridine (BrdU) incorporation assay. […] Serum free media containing 0.1% BSA was added to the cells. 24 hours later the media was removed and replaced with warmed serum free media. […] Proliferation was then monitored using the BrdU Cell Proiferation Assay, HTS (Calbiochem cat. #HTS01). BrdU was allowed to incorporate into cells for 24 hours prior to the addition of fixative/denaturing solution and the fluorometric detection of incorporated BrdU using a BrdU antibody as per manufacturer's directions. Data are reported as a percent of the PDGF-stimulated BrdU incorporation.

LPS-challenged mice = test: LPS-induced cytokine production assay (IL-1β in BALF); type: in vivo, mouse; settings: intratracheal, one hour prior to LPS challenge; BALF four hours after; FIG. 13
Method: Male BALB/c mice, approximately 19 to 21 grams, were ordered from Charles River Laboratories (Raleigh, N.C.). All animals were challenged with aerosolized LPS (10 μg/ml) for 25 minutes on study day 0. LPS aerosol was generated using an Aerogen Aeroneb nebulizer and controller providing a flow of 400 μl/min and a particle size of 2-4 μm MMAD. Rolipram was administered i.p at 20 mg/kg. […] Total cell counts were determined using the Coulter Counter. For differential evaluations, BALF was centrifuged and cytospin slides prepared and stained […]. Manual leukocyte counts were then completed on 200 cells. The final concentration of individual leukocyte cell types per ml of BALF was determined by multiplication of the relative percentage of individual leukocytes with the total amount of cells/ml of BALF fluid. The concentration of IL-1β in the BALF samples was determined using commercially available Bio-plex kits (Bio-Rad).

[9] = IMAP FP assay, 30 μM ATP, read-out: p70S6K Ki, Avg
[10] = IMAP assay, 10 μM ATP, read-out: ROCK2 Ki, Avg
[11] = average percent of PDGF stimulated proliferation

SMILES: c1cc2cc(CN3CCC[C@@H](Nc4ccc5[nH]ncc5c4)C3)ccc2o1 [Compound 1.131]
eosinophils per ml of BALF [1]: reduced
airway hyperreactivity to methacholine on Day 32 ([2]; oral 15 μMol/kg once a day): prevention of airway hyperreactivity

Vz_F [3]: 19.0 L/kg
SMILES: OCCOc1cccc(CN2CCC[C@@H](Nc3ccc4[nH]ncc4c3)C2)c1 [Compound 1.092]

SMILES: NC(=O)COc1cccc(CN2CCC[C@H](Nc3ccc4[nH]ncc4c3)C2)c1 [Compound 1.195]
Ki (p70S6K; [9]): 2730 nM
Ki (p70S6K; read-out: p70S6K Ki): 2730 nM
Mouse Oral PK [4]: 108 nM
Plasma Mean Concentration [4]: 107.9 nM

AUC (0-last) [3]: BLQ
Cmax [3]: BLQ
Tmax [3]: BLQ
Vz_F [3]: BLQ
t½ [3]: BLQ
SMILES: CCc1ccc(CN2CCC[C@@H](Nc3ccc4[nH]ncc4c3)C2)cc1 [Compound 1.136]

SMILES: Cc1ccc(CN2CCC[C@@H](Nc3ccc4[nH]ncc4c3)C2)cc1NS(=O)(=O)N(C)C [Compound 1.262]
Ki (ROCK2; [10]): 4 nM
Ki (ROCK2; read-out: ROCK2 Ki): 4 nM
IL-1β [5]: 145.7%
IL-6 [6]: 156.6%
TNF-α [7]: 135.3%
Ki (Akt3): 861 nM

SMILES: COc1ccc(CN2CCC[C@H](Nc3ccc4[nH]ncc4c3)C2)cc1 [Compound 1.079]
Ki (p70S6K; [9]): 3010 nM
Ki (p70S6K; read-out: p70S6K Ki): 3010 nM
Mouse Oral PK [4]: 2443 nM
Plasma Mean Concentration [4]: 2442.5 nM

activity at 10 µM (ERK2): 12%
SMILES: OCCn1ccc2cc(CN3CC[C@@H](Nc4cccc5cnccc45)C3)ccc21 [Compound 2.066]
airway hyperreactivity [2]: prevention of airway hyperreactivity

activity at 1 µM (ERK2): 104%
activity at 10 µM (ERK2): 92%
SMILES: Cc1ccc(CN2CCC[C@@H](Nc3ccc4[nH]ncc4c3)C2)cc1OCCO [Compound 1.161]
airway hyperreactivity [2]: prevention of airway hyperreactivity

SMILES: CSc1ccc(CN2CC[C@@H](Nc3cccc4cnccc34)C2)cc1 [Compound 2.026]
Proliferation at 10 μM [8, 11]: 52.0%
AUC (0-last) [3]: BLQ
Cmax [3]: BLQ
Tmax [3]: BLQ
Vz_F [3]: BLQ
t½ [3]: BLQ

SMILES: Cc1ccc(CN2CCC[C@H](Nc3ccc4[nH]ncc4c3)C2)cc1NS(=O)(=O)N(C)C [Compound 1.237]
Ki (ROCK2; [10]): 4 nM
Ki (ROCK2; read-out: ROCK2 Ki): 4 nM
IL-1β [5]: 97.1%
IL-6 [6]: 100.9%
TNF-α [7]: 70.6%
Percent of PDGF Induced Proliferation at 1 μM Avg ([8]; 1 μM, 10 ng/mL PDGF): 63.5%
Percent of PDGF Induced Proliferation at 10 μM Avg ([8]; 10 μM, 10 ng/mL PDGF): 51.4%
Proliferation at 1 μM ([8]; average percent of PDGF stimulated proliferation, 1 μM test compound): 63.5%
Proliferation at 10 μM [8, 11]: 51.4%
Ki (Akt3): 7910 nM

SMILES: NC(=O)Cn1ccc2cc(CN3CC[C@@H](Nc4cccc5cnccc45)C3)ccc21 [Compound 2.059]
airway hyperreactivity [2]: prevention of airway hyperreactivity
IL-1β in BALF (LPS-challenged mice): reduction
activity at 1 µM (ERK2): 56%
activity at 10 µM (ERK2): 12%
